Data set [1] is classed as in vitro ADME, human. The procedure: On human nail discs of 6 mm diameter were mounted 1.5 cm pieces of tubing of 4 mm outer and 3 mm inner diameter, in each of which was poured 30 µl of one of the above lotions (n = 2 x 3). The free (ventral) surfaces of the nail discs were kept moist on a pad soaked in saline.
After 48 hours of incubation at 30°C and the discs were sectioned (50 µm) parallel to their dorsal surface, using a freeze-microtome. Radioactivity was measured in the separate sections, after which the amount of penetrated oxiconazole was calculated.
To lotions consisting of 50% v/v of ethanol in distilled water were added 0.1 M of NAC (pH 2.3), of 1,4-dithiothreitol (DTT, not claimed, pH 4.5) or of ammonium thioglycolate (ATG, not claimed, pH 9.0), as in Example 10. To all three solutions was also added 1% w/v of oxiconazole, containing a known amount (1 µCi per 30 µl) of radioactive ¹⁴C oxiconazole. These lotions were tested in an experimental set-up as in Examples 6 and 9.

Data set [2] is described as follows: Comparison of sulfhydryl compounds: weight increase of nail clippings during immersion in a lotion (Example 10). The arrangement: species or system human. The conditions noted are these: 0.1 M in lotion of 50% v/v ethanol in distilled water. The procedure: (§1) Human nail clippings were immersed in the test and control lotions at ambient temperature and their weight increase expressed as % of their original weight.
The effects of 0.1 M of each of NAC (pH 2.3), 1,4-dithiothreitol (DTT, not claimed, pH 4.5) and ammonium thioglycolate (ATG, not claimed, pH 9.0), in a lotion consisting of 50% v/v ethanol in distilled water were compared, as in Example 1. The immersion period of the human nail clippings in the control and test lotions was 72 hours.

A short description of data set [3]: Weight increase of nail clippings during immersion in a lotion (Example 1). The arrangement: species or system Human. The protocol:
Solutions (lotions) were prepared, containing (v/v) 40% of distilled water, 40% of methyl ethyl ketone and 20% of isopropyl alcohol.
To these lotions were added salicylic acid, NAC, 1,4-dithiothreitol or mercaptoethylamine, in w/v concentrations as further specified in Table 1.
To distilled water were added glutathione, mercaptoethanol or urea, in w/v concentrations as further specified in Table 1.
as §1

Structures are written as SMILES.

For the molecule `O[C@H](CS)[C@H](O)CS` (relative stereo) [1,4-Dithiothreitol, 1,4-dithiothreitol], the “Average amount of oxiconazole (μg), Total” value in data set [1] amounted to 10.02 µg. In data set [2], the “Average % weight increase after immersion during 72 hours” value was 49%. For the same molecule, the “Average % weight increase during immersion (hours)” value is recorded as 21% in data set [3] (20 % w/v in lotion, 1 hour); 32% in data set [3] (20 % w/v in lotion, 3 hours); 38% in data set [3] (20 % w/v in lotion, 6 hours); 51% in data set [3] (20 % w/v in lotion, 24 hours); 50% in data set [3] (20 % w/v in lotion, 48 hours); 58% in data set [3] (20 % w/v in lotion, 72 hours).
In the case of `O=C(O)CS` [Ammonium thioglycolate, ammonium thioglycolate], the “Average amount of oxiconazole (μg), Total” value in data set [1] came to 2.34 µg. For the same molecule, the “Average % weight increase after immersion during 72 hours” value in data set [2] is 52%.
With `N[C@@H](CCC(=O)N[C@@H](CS)C(=O)NCC(=O)O)C(=O)O` [Glutathione, glutathione], the “Average % weight increase during immersion (hours)” value came to 30% in data set [3] (10 % w/v in distilled water, 1 hour); 32% in data set [3] (10 % w/v in distilled water, 3 hours); 33% in data set [3] (10 % w/v in distilled water, 6 hours); 44% in data set [3] (10 % w/v in distilled water, 24 hours); 58% in data set [3] (10 % w/v in distilled water, 48 hours); 61% in data set [3] (10 % w/v in distilled water, 72 hours).
With `NCCS` [Mercaptoethyl-amine, mercaptoethylamine], the “Average % weight increase during immersion (hours)” value in data set [3] (20 % w/v in lotion, 1 hour) is given as 10%; in data set [3] (20 % w/v in lotion, 3 hours), 16%; in data set [3] (20 % w/v in lotion, 6 hours), 21%; in data set [3] (20 % w/v in lotion, 24 hours) it was 38%; in data set [3] (20 % w/v in lotion, 48 hours), 55%; in data set [3] (20 % w/v in lotion, 72 hours), 64%.
Regarding `O=C(O)c1ccccc1O` [Salicylic acid], the “Average % weight increase during immersion (hours)” value in data set [3] (14 % w/v in lotion (water/methyl ethyl ketone/isopropyl alcohol), 1 hour, ambient temperature) was 17%; in data set [3] (14 % w/v in lotion, 3 hours), 24%; in data set [3] (14 % w/v in lotion, 6 hours), 26%; in data set [3] (14 % w/v in lotion, 24 hours) it was 29%; in data set [3] (14 % w/v in lotion, 48 hours) it was 30%; in data set [3] (14 % w/v in lotion, 72 hours) it was 30%.
In the case of `NC(N)=O` [Urea, urea], the “Average % weight increase during immersion (hours)” value came to 22% in data set [3] (50 % w/v in distilled water, 1 hour); 24% in data set [3] (50 % w/v in distilled water, 3 hours); 32% in data set [3] (50 % w/v in distilled water, 6 hours); 35% in data set [3] (50 % w/v in distilled water, 24 hours); 36% in data set [3] (50 % w/v in distilled water, 48 hours); 37% in data set [3] (50 % w/v in distilled water, 72 hours).

The values are drawn from patent EP0440298A1, “Topical preparations for treating human nails” (BROCADES PHARMA B.V., priority 1990, dated 1991).
